Common to all, as to assay: filter binding kinase assay
Common to all, as to format: biochemical

Test [1] deals with T1, DYRK3 (Homo sapiens, UniProt O43781).
T1 construct: purchased
T1 sequence (O43781 1-588): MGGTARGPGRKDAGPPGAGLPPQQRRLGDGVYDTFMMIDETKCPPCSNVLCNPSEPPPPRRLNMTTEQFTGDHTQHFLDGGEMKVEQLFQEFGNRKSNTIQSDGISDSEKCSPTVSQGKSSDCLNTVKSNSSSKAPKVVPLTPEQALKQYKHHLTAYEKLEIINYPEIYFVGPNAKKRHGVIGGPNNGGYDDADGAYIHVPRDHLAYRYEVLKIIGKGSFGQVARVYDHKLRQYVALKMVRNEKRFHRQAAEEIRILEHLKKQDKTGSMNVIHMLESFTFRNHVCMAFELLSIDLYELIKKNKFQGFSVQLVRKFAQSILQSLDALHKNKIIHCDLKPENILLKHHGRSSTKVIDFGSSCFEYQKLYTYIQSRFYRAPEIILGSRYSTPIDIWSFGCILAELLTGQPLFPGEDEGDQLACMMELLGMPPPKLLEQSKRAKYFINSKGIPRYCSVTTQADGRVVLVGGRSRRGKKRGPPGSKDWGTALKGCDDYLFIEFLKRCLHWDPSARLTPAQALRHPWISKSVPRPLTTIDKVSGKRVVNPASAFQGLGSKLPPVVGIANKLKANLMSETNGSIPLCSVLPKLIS
The settings on record: derived from % inhibition at 1 μM. Put shortly: (§1)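 Kinase activity is measured at room temperature by filter binding, with incorporated radiolabel counted after acid termination. A 5-minute preincubation of compound, enzyme and substrate precedes addition of ATP from a kinase-dependent stock (5, 20 or 50 […]).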

In test [2] the target is T2, NEK2 (Nek2A) (Homo sapiens, UniProt P51955).
T2 construct: purchased
T2 sequence (P51955 1-445): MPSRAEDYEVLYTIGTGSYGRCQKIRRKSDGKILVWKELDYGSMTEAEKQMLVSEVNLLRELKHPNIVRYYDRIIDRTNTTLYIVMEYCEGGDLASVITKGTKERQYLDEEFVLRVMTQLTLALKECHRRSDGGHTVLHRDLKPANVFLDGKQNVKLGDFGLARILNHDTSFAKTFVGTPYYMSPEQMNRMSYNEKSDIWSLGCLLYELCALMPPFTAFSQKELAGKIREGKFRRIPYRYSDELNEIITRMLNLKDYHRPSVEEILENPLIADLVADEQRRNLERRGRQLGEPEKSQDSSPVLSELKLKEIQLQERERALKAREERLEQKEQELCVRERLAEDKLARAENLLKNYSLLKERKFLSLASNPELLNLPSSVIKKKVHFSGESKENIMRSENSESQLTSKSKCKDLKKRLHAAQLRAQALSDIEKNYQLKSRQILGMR
The note with it: for IC50: derived from % inhibition at 1 μM. Put shortly: as §1

Test [3] has as its target T3, CDK2 (Homo sapiens, UniProt P24941).
T3 construct: purchased
The note with it: for IC50: derived from % inhibition at 1 μM; for remaining activity at 1 µM: read-out: residual kinase activity CDK2. Put shortly:
as §1

Test [4] has as its target T4, HIPK2 (Homo sapiens, UniProt Q9H2X6).
T4 construct: purchased
The note with it: for IC50: derived from % inhibition at 1 μM. Put shortly: as §1

Test [5] addresses T5, CSNK2A1 (CK2) (Homo sapiens, UniProt P68400).
T5 construct: purchased
The note with it: for IC50: derived from % inhibition at 1 μM. A digest of the protocol:
as §1

Test [6] has as its target T6, ERBB4 (Homo sapiens, UniProt Q15303).
T6 construct: purchased
The note with it: derived from % inhibition at 1 μM. A digest of the protocol: as §1

Test [7] deals with T7, BTK (Homo sapiens, UniProt Q06187).
T7 construct: purchased
T7 sequence (Q06187 whole entry, species assumed): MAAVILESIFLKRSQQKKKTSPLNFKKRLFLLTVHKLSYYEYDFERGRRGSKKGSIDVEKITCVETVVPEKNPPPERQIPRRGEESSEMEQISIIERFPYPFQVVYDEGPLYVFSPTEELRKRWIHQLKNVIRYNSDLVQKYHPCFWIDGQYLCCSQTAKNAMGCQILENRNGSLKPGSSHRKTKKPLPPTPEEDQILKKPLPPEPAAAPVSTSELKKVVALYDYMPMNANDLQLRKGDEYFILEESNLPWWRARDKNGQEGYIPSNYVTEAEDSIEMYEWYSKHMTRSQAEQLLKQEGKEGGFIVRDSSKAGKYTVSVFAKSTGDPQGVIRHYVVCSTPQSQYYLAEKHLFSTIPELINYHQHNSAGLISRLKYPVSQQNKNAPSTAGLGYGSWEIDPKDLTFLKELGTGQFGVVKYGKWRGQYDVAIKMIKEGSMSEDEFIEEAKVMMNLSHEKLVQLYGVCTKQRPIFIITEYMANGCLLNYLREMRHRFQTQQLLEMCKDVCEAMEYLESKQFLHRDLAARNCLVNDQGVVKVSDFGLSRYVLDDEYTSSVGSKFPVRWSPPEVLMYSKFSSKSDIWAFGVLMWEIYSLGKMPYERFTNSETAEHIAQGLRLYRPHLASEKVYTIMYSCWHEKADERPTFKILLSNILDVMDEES
The settings on record: derived from % inhibition at 1 μM. Put shortly: as §1

The target of test [8] is T8, MINK1 (Homo sapiens, UniProt Q8N4C8).
T8 construct: purchased
T8 sequence (Q8N4C8 whole entry, species assumed): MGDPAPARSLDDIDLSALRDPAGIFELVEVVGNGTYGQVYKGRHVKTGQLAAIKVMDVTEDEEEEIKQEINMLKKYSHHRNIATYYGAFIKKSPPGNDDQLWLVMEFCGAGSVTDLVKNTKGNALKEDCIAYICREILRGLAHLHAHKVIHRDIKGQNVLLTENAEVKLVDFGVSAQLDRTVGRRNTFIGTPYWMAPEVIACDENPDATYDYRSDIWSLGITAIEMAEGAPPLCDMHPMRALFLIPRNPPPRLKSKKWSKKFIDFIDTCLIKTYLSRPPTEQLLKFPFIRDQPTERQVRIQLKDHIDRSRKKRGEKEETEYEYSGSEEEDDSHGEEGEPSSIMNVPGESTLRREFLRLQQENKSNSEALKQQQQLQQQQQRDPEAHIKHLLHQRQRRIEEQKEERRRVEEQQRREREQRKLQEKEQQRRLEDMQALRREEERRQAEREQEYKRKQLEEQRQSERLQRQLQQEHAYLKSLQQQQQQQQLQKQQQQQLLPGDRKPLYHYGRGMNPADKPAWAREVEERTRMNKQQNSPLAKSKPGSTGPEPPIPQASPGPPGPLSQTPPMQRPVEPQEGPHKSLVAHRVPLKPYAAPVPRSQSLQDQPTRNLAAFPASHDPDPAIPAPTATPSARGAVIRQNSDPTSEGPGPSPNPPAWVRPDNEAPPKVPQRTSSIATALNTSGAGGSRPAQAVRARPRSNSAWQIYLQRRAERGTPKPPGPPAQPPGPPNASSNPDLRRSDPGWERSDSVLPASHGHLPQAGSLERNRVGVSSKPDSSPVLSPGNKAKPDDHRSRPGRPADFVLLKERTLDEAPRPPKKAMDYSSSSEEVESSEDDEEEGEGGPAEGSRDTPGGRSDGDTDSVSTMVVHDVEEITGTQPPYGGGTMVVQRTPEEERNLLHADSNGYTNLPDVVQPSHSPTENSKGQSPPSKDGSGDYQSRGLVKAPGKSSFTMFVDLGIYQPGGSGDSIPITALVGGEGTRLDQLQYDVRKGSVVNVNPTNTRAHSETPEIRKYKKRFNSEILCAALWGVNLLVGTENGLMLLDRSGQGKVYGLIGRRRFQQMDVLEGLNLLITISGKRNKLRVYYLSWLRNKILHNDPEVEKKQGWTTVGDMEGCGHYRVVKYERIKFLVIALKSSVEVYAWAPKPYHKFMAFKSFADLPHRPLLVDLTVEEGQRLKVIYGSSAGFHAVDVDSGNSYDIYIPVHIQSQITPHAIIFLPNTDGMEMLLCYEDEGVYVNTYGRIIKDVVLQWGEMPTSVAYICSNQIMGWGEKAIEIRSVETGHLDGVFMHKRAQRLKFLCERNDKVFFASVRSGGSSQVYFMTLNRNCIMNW
The settings on record: derived from % inhibition at 1 μM. A digest of the protocol:
as §1

The target in test [9] is T9, MAPK13 (Homo sapiens, UniProt O15264).
T9 construct: purchased
T9 sequence (O15264 1-365): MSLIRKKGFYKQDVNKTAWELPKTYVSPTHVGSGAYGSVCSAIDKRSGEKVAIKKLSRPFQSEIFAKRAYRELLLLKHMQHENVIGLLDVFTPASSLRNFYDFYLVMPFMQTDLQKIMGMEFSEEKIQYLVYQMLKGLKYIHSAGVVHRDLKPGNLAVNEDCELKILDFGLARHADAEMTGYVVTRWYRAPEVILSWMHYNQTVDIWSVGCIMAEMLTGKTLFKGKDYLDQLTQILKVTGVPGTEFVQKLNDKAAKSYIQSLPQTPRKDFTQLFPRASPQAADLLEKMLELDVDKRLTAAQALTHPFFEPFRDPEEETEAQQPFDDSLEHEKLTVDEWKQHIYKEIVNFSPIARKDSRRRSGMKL
The note with it: derived from % inhibition at 1 μM. A digest of the protocol: as §1

The record followed here is patent publication US8703961B2, “Thiazole derivatives for the treatment of diseases such as cancer” (Merck Patent GmbH, priority 2009, dated 2014).

T6 sequence (Q15303 26-1308, species assumed): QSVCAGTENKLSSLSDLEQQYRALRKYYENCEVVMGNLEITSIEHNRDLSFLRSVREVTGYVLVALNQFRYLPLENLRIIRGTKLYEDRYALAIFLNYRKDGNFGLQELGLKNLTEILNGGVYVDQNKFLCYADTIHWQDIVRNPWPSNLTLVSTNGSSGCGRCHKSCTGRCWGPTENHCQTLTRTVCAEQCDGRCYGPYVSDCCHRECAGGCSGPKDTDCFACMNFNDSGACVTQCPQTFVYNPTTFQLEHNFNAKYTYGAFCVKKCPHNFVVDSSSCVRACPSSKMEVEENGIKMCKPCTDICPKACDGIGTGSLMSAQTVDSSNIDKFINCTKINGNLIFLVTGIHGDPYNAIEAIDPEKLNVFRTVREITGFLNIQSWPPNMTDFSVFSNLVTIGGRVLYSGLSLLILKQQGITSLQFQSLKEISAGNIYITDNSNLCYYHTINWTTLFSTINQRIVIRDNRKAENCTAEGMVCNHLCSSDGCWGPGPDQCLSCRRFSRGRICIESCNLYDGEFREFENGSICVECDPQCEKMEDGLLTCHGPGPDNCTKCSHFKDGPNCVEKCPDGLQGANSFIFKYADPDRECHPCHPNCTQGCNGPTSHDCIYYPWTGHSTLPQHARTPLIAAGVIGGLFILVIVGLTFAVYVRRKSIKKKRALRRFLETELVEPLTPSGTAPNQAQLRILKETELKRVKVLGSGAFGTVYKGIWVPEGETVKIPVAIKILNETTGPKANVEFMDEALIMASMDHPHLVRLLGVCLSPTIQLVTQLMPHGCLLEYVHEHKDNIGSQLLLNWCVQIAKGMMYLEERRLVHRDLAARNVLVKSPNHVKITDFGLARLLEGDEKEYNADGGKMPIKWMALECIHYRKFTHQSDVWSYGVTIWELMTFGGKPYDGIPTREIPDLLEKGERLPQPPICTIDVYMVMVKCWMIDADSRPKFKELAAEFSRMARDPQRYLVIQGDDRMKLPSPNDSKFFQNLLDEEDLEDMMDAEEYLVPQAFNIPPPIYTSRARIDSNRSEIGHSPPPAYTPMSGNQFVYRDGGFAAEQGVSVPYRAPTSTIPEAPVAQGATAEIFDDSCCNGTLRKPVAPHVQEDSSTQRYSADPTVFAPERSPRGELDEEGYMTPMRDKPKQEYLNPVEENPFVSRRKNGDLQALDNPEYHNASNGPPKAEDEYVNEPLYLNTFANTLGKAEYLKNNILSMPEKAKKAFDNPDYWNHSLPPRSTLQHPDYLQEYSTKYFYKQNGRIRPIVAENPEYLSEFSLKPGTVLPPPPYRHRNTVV
T5 sequence (P68400 whole entry, species assumed): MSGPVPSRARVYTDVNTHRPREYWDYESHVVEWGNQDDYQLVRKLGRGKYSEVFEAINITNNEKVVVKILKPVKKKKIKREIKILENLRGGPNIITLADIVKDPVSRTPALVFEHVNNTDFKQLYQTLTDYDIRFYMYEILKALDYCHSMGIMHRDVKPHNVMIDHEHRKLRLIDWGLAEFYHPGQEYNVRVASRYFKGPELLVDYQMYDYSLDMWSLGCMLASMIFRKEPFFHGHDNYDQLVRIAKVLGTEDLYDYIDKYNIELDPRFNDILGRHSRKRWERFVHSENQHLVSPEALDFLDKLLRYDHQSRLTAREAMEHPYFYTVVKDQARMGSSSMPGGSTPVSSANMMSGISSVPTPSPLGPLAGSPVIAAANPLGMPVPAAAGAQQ
T4 sequence (Q9H2X6 whole entry, species assumed): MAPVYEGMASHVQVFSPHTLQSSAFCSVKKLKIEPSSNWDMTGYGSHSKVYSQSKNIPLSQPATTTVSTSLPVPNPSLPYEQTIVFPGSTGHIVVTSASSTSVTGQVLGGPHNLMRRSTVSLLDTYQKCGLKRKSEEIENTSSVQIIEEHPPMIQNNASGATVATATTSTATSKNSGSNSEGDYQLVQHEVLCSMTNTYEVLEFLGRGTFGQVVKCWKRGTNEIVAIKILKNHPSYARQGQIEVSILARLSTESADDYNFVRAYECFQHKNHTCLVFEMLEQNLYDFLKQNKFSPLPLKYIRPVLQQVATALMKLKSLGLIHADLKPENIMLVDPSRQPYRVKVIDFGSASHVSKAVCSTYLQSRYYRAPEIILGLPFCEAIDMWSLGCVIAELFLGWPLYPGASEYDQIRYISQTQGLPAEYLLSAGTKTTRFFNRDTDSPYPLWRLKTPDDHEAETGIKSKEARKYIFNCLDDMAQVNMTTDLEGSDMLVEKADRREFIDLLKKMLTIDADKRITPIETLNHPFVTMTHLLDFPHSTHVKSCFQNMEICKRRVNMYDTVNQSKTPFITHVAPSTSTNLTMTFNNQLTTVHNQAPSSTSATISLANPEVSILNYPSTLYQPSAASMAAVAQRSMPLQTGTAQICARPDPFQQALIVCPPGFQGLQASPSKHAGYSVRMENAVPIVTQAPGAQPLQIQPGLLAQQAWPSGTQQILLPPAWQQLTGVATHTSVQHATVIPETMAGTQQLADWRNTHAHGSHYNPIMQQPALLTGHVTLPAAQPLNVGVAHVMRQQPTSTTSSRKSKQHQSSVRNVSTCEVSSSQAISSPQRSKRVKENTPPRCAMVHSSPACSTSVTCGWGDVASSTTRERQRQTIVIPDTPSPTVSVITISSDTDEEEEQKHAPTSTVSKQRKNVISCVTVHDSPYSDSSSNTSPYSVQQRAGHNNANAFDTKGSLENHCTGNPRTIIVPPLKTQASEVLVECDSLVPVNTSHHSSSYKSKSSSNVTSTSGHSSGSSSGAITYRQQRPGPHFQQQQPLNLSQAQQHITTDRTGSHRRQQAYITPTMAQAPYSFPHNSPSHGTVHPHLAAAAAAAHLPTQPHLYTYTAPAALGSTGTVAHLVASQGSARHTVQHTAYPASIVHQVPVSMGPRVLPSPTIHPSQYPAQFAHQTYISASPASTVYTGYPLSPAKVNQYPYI

As for `c1ccc(Cc2c[nH]c3ncsc23)cc1` [Compound A7, 6-benzyl-4H-pyrrolo[2,3-d]thiazole], the IC50 in test [1] is 10 to 100 µM; in test [2] it was > 1 µM; in test [3], 0.01 to 1 µM; in test [4], > 1 µM; in [6] it was 10 to 100 µM; in test [7], 10 to 100 µM. Also, the 50% inhibitory concentration (IC50) in test [8] and in [9] was 1 to 10 µM each time. Besides, the remaining activity at 1 µM in test [3] was found to be 41%; in [5] (read-out: residual kinase activity CK2), 53%.

Regarding `Nc1ncsc1C#Cc1cnc2[nH]ccc2c1` [Compound A22, 5-(1H-pyrrolo[2,3-b]pyridin-5-ylethynyl)thiazol-4-ylamine], the IC50 was 10 to 100 µM in test [1]; > 1 µM in [2]; 1 to 10 µM in [3]; 0.01 to 1 µM in test [4]; > 1 µM in test [5]; > 1 µM in test [6]. In addition, the results for the half-inhibitory concentration (IC50) in [7], in test [8] and in [9] were 10 to 100 µM, 1 to 10 µM and 10 to 100 µM, respectively. In addition, the remaining activity at 1 µM in test [3] amounted to 52%; in test [4] (read-out: residual kinase activity HIPK2), 44%.

As to `CC(C)(C)OC(=O)Nc1nc(-c2ccncc2)sc1C#CCN1CCOCC1` [Compound A25, tert-butyl[5-(3-morpholin-4-ylprop-1-ynyl)-2-pyridin-4-ylthiazol-4-yl]-carbamate], the half-inhibitory concentration (IC50) in [1] was 10 to 100 µM; in test [2], 1 to 10 µM; in test [3], 10 to 100 µM; in test [4], > 1 µM; in test [5], > 1 µM; in test [6] it was > 1 µM. For the same molecule, the IC50 in [7] was 10 to 100 µM; in [8], 10 to 100 µM; in test [9], > 1 µM.

For `CC(C)(C)OC(=O)Nc1ncsc1C#CCN1C(=O)c2ccccc2C1=O` [Compound A26, tert-butyl{5-[3-(1,3-dioxo-1,3-dihydroisoindol-2-yl)prop-1-ynyl]-thiazol-4-yl}carbamate], the IC50 in test [1] was 1 to 10 µM; in test [2], 1 to 10 µM; in [3], 0.01 to 1 µM; in [4], 1 to 10 µM; in [5], 10 to 100 µM; in test [6] it was > 1 µM. Also, the half-maximal inhibitory concentration (IC50) was > 1 µM in test [7], 10 to 100 µM in [8] and 10 to 100 µM in test [9]. The remaining activity at 1 µM in [3] amounted to 28%.

For `Nc1ncsc1C#Cc1cccc(O)c1` [Compound A27, 3-(4-aminothiazol-5-ylethynyl)phenol], the IC50 is 10 to 100 µM in test [1]; 1 to 10 µM in [2]; 10 to 100 µM in test [3]; > 1 µM in [4]; > 1 µM in test [5]; 1 to 10 µM in test [6]. The figures for the half-maximal inhibitory concentration (IC50) in test [7], in [8] and in [9] were 10 to 100 µM, 1 to 10 µM and 1 to 10 µM, respectively. For the same molecule, the remaining activity at 1 µM in test [2] (read-out: residual kinase activity Nek2A) is 59%.

What is called IC50 is the concentration that gives 50% inhibition. Higher therefore signals lower potency.
